Consider 42 substances from patent US20230407373A1 (priority 2020, published 2023).

Common to all, as to type: binding
Assay [1] concerns SARS-CoV-2 gRNA and sgRNAs. To be noted: for target (unweighted spectral count in RNP capture): Probe II capture, LC-MS/MS LFQ; for background (unweighted spectral count in control): no-probe control pull-down, used as background for Probe II; for target (unweighted spectral count of the protein in the RNP capture experiment): LC-MS/MS label-free quantification, probe pool not given; for back-ground (unweighted spectral count of the protein in the control experiment): protein background of the control (e.g. no-probe) experiment.

Assay [2] concerns gRNA of HCoV-OC43. To be noted: for target (spectral count) / background (spectral count): type g_36_m, 36 hpi, Probe I; for target (spectral count): HCoV-OC43-infected HCT-8 cells; for background (spectral count): uninfected-probe control.
The subject of assay [3] is HCoV-OC43 gRNA and sgRNA. To be noted: for target (unweighted spectral count, OC43 Probe II capture) / target (unweighted spectral count): tested against no-probe control; for target (unweighted spectral count, OC43 Probe II capture): FDR<10%; for target (unweighted spectral count, OC43 Probe II) / background (unweighted spectral count, no-probe control): type n_48_v, 48 hpi; for target (unweighted spectral count, OC43 Probe II): OC43 Probe II capture on infected cells; for background (unweighted spectral count, no-probe control): no-probe control on infected cells; for target (spectral count) / background (spectral count): type s_36_m, Probe II; for target (spectral count): HCoV-OC43-infected HCT-8 cells; for background (spectral count): uninfected-probe control; for target (unweighted spectral count): OC43 Probe II, infected cells.

The mark [4] stands for this setting: type n_48_v: 48 hours post-infection, infected cells, OC43 Probe I, unweighted spectral count.
Setting [5] is: type n_48_v: 48 hours post-infection, no-probe control on infected cells.

Read-outs that look alike come from different tables or passages of the source.

As to KHDRB51, in assay [1], the “target (unweighted spectral count in RNP capture)” value turned out to be 13 and the “background (unweighted spectral count in control)” value was determined as 1.

Consider HELZ2: host protein, UniProt Q9BYK8, for which, in assay [2], the “target (spectral count)” value is recorded as 11 and the “background (spectral count)” value is 1. In addition, the “target (spectral count, OC43 Probe I RNP capture)” value in assay [2] (setting [4]) turned out to be 8. In addition, the “background (spectral count, no-probe control)” value in assay [2] (setting [5]) came to 1. Moreover, in assay [3] (36 hpi, type n_36_v), the “target (unweighted spectral count, OC43 Probe II capture)” value was determined as 16. In addition, in assay [3], the “target (unweighted spectral count, OC43 Probe II)” value is on record as 20 and the “background (unweighted spectral count, no-probe control)” value came out at 1. Also, in assay [3] (36 hpi), the “target (spectral count)” value was determined as 16 and the “background (spectral count)” value turned out to be 1.

For H2AFY, the “target (unweighted spectral count)” value in assay [3] (12 hpi (type n_12_v)) was found to be 4.

With MPG, the “target (unweighted spectral count)” value in assay [3] (12 hpi (type n_12_v)) is given as 4.

As for ENO1, in assay [1], the “target (unweighted spectral count in RNP capture)” value was found to be 22 and the “background (unweighted spectral count in control)” value is recorded as 4.

Turning to KHDRBS1: host protein, UniProt Q07666, in assay [2], the “target (spectral count)” value is on record as 13 and the “background (spectral count)” value came out at 2. In assay [3] (36 hpi, type n_36_v), the “target (unweighted spectral count, OC43 Probe II capture)” value was found to be 12. Moreover, the “target (unweighted spectral count)” value in assay [3] (24 hpi (type n_24_v)) came to 10. In assay [3], the “target (unweighted spectral count, OC43 Probe II)” value came to 14 and the “background (unweighted spectral count, no-probe control)” value is given as 1. In assay [3] (36 hpi), the “target (spectral count)” value is on record as 12 and the “background (spectral count)” value was 2.

For TUBB4B, in assay [1], the “target (unweighted spectral count of the protein in the RNP capture experiment)” value came out at 6 and the “back-ground (unweighted spectral count of the protein in the control experiment)” value (“back-ground” for short) was 1.

As for SNRNP70: host protein, UniProt P08621, in assay [2], the “target (spectral count)” value came out at 9 and the “background (spectral count)” value is given as 1. Besides, in assay [3], the “target (unweighted spectral count, OC43 Probe II)” value worked out at 8 and the “background (unweighted spectral count, no-probe control)” value is listed as 2.

For the substance NUMA1, the “target (unweighted spectral count)” value in assay [3] (12 hpi (type n_12_v)) was determined as 5.

As to SUPT16H, the “target (unweighted spectral count)” value in assay [3] (12 hpi (type n_12_v)) stood at 4.

On to PRPF8, for which, in assay [3] (24 hpi, type n_24_v), the “target (unweighted spectral count, OC43 Probe II capture)” value turned out to be 7. In assay [3], the “target (unweighted spectral count, OC43 Probe II)” value was determined as 20 and the “background (unweighted spectral count, no-probe control)” value is reported as 5.

As to GEMIN5, in assay [1], the “target (unweighted spectral count of the protein in the RNP capture experiment)” value came to 5 and the “back-ground” value is 1.

For NSP8, in assay [2], the “background (spectral count, no-probe control)” value amounted to 1 and the “target (spectral count, OC43 Probe I RNP capture)” value is 5.

As to SSRP1, the “target (unweighted spectral count, OC43 Probe II capture)” value in assay [3] (24 hpi, type n_24_v) was determined as 4.

In the case of ZFR, the “target (unweighted spectral count, OC43 Probe II capture)” value in assay [3] (24 hpi, type n_24_v) stood at 4. Also, in assay [3], the “target (unweighted spectral count, OC43 Probe II)” value is on record as 6 and the “background (unweighted spectral count, no-probe control)” value came to 1.

Regarding ATP13A1, the “target (unweighted spectral count, OC43 Probe II capture)” value in assay [3] (36 hpi, type n_36_v) is recorded as 6.

For KHDR ? S1, the “target (spectral count, OC43 Probe I RNP capture)” value in assay [2] (setting [4]) is 18. In addition, the “background (spectral count, no-probe control)” value in assay [2] (setting [5]) stood at 1.

In the case of TCP1, the “target (unweighted spectral count, OC43 Probe II capture)” value in assay [3] (36 hpi, type n_36_v) is 4.

With PRRC2A: host protein, UniProt P48634, in assay [2], the “target (spectral count)” value is given as 12 and the “background (spectral count)” value worked out at 1. Besides, in assay [2] (setting [4]), the “target (spectral count, OC43 Probe I RNP capture)” value is 9. For the same substance, in assay [2] (setting [5]), the “background (spectral count, no-probe control)” value was 1. The “target (unweighted spectral count, OC43 Probe II capture)” value in assay [3] (36 hpi, type n_36_v) is on record as 10. For the same substance, the “target (unweighted spectral count)” value in assay [3] (24 hpi (type n_24_v)) worked out at 8. Moreover, in assay [3], the “target (unweighted spectral count, OC43 Probe II)” value is on record as 9 and the “background (unweighted spectral count, no-probe control)” value stood at 1.

For the substance ESYT1, the “target (unweighted spectral count, OC43 Probe II capture)” value in assay [3] (36 hpi, type n_36_v) was 4.

HIST1H1C: the “target (unweighted spectral count)” value in assay [3] (12 hpi (type n_12_v)) worked out at 7.

With GAPDH, in assay [1], the “target (unweighted spectral count in RNP capture)” value turned out to be 12 and the “background (unweighted spectral count in control)” value stood at 1.

As for YBX2: host protein, UniProt Q9Y2T7, the “target (unweighted spectral count, OC43 Probe II capture)” value in assay [3] (36 hpi, type n_36_v) turned out to be 9. In addition, in assay [3], the “target (unweighted spectral count, OC43 Probe II)” value was found to be 8 and the “background (unweighted spectral count, no-probe control)” value is 1. Further, in assay [3] (36 hpi), the “target (spectral count)” value is 9 and the “background (spectral count)” value is listed as 1.

Regarding AKAP8, in assay [3] (36 hpi, type n_36_v), the “target (unweighted spectral count, OC43 Probe II capture)” value worked out at 4.

Regarding CCAR2: host protein, UniProt Q8N163, in assay [2], the “target (spectral count)” value came out at 20 and the “background (spectral count)” value is on record as 1. The “target (spectral count, OC43 Probe I RNP capture)” value in assay [2] (setting [4]) turned out to be 23. In assay [2] (setting [5]), the “background (spectral count, no-probe control)” value amounted to 1. Moreover, the “target (unweighted spectral count, OC43 Probe II capture)” value in assay [3] (36 hpi, type n_36_v) was found to be 12. Also, the “target (unweighted spectral count)” value in assay [3] (24 hpi (type n_24_v)) turned out to be 8. In assay [3], the “target (unweighted spectral count, OC43 Probe II)” value was found to be 20 and the “background (unweighted spectral count, no-probe control)” value stood at 1. Further, in assay [3] (36 hpi), the “target (spectral count)” value was 12 and the “background (spectral count)” value turned out to be 1.

As to USP10, the “target (spectral count, OC43 Probe I RNP capture)” value in assay [2] (setting [4]) is on record as 6. The “background (spectral count, no-probe control)” value in assay [2] (setting [5]) was determined as 1. In addition, in assay [3] (24 hpi, type n_24_v), the “target (unweighted spectral count, OC43 Probe II capture)” value is on record as 5. Also, the “target (unweighted spectral count, OC43 Probe II capture)” value in assay [3] (36 hpi, type n_36_v) came out at 4. Besides, in assay [3], the “target (unweighted spectral count, OC43 Probe II)” value stood at 7 and the “background (unweighted spectral count, no-probe control)” value is 1.

With RP22L1, in assay [1], the “target (unweighted spectral count in RNP capture)” value turned out to be 7 and the “background (unweighted spectral count in control)” value is 1.

XRCC5: host protein, UniProt P13010: in assay [2], the “target (spectral count)” value is recorded as 8 and the “background (spectral count)” value was 1. In addition, in assay [2] (setting [4]), the “target (spectral count, OC43 Probe I RNP capture)” value is reported as 10. The “background (spectral count, no-probe control)” value in assay [2] (setting [5]) was determined as 1. In assay [3] (36 hpi, type n_36_v), the “target (unweighted spectral count, OC43 Probe II capture)” value is given as 7. Also, in assay [3], the “target (unweighted spectral count, OC43 Probe II)” value is 12 and the “background (unweighted spectral count, no-probe control)” value was 1. In assay [3] (36 hpi), the “target (spectral count)” value amounted to 7 and the “background (spectral count)” value is on record as 1.

For the substance KRT16, the “target (unweighted spectral count)” value in assay [3] (24 hpi (type n_24_v)) was determined as 22.

Turning to FAM125A, the “target (unweighted spectral count in RNP capture)” value in assay [1] amounted to 97.

Regarding RBPMS, in assay [1], the “target (unweighted spectral count of the protein in the RNP capture experiment)” value is recorded as 5 and the “back-ground” value is 1.

For the substance C19orf66, in assay [3] (36 hpi, type n_36_v), the “target (unweighted spectral count, OC43 Probe II capture)” value worked out at 4. Also, in assay [3], the “target (unweighted spectral count, OC43 Probe II)” value turned out to be 6 and the “background (unweighted spectral count, no-probe control)” value worked out at 1.

ZC3H7B: the “target (unweighted spectral count)” value in assay [3] (24 hpi (type n_24_v)) came out at 6.

Consider HSPA1B, for which, in assay [3] (36 hpi, type n_36_v), the “target (unweighted spectral count, OC43 Probe II capture)” value is listed as 4.

Consider LSM14A, for which, in assay [1], the “target (unweighted spectral count in RNP capture)” value was 8 and the “background (unweighted spectral count in control)” value amounted to 1.

Take PLEC: in assay [3], the “target (unweighted spectral count, OC43 Probe II)” value is on record as 6 and the “background (unweighted spectral count, no-probe control)” value worked out at 1.

For LGALS3, in assay [3], the “target (unweighted spectral count, OC43 Probe II)” value was 5 and the “background (unweighted spectral count, no-probe control)” value is reported as 1.

Consider DDX39B, for which the “target (spectral count, OC43 Probe I RNP capture)” value in assay [2] (setting [4]) was 5. Besides, in assay [2] (setting [5]), the “background (spectral count, no-probe control)” value came to 1. In assay [3], the “target (unweighted spectral count, OC43 Probe II)” value is reported as 6 and the “background (unweighted spectral count, no-probe control)” value is listed as 1.

With ABCF1, the “target (spectral count, OC43 Probe I RNP capture)” value in assay [2] (setting [4]) stood at 7. Besides, the “background (spectral count, no-probe control)” value in assay [2] (setting [5]) is 1. Further, in assay [3], the “target (unweighted spectral count, OC43 Probe II)” value was 5 and the “background (unweighted spectral count, no-probe control)” value was 1.

With DDX54, the “target (unweighted spectral count, OC43 Probe II capture)” value in assay [3] (36 hpi, type n_36_v) was determined as 5.

Take EEF1G: the “target (unweighted spectral count, OC43 Probe II capture)” value in assay [3] (36 hpi, type n_36_v) is 4.

Consider PPP1CA, for which the “target (unweighted spectral count, OC43 Probe II capture)” value in assay [3] (36 hpi, type n_36_v) amounted to 4.
